# According to patent publication US6784176B2, “Solvates of pymetrozine” (priority 1999, dated 2004):
# Experiment: Reversible water uptake and release of pymetrozine at defined relative humidity
# Format: physicochemical
# Conditions: room temperature
# Text: The above-mentioned water content of 16 to 17% by weight corresponds very well to a dihydrate. Even pesticidal formulations that contain water-free and solvent-free pymetrozine take up usually water or the corresponding solvent from the atmosphere when left to stand under sufficiently high vapour pressure.
compound,measurement,setting,value
CC1=NNC(=O)N(/N=C/c2cccnc2)C1 [pymetrozine],water taken up,relative humidity between 60% and 70%,16 to 17 % by weight
same,water release,"relative humidity of less than ca. 10%, water-containing pymetrozine",gives up the water completely
